Source: the NIST ThermoML archive (doi:10.1016/j.jct.2007.04.005)
Numbers after ± are expanded uncertainties.

Test: xn = mol fraction of the nth substance listed
Conditions: 298.15 K, Liquid

CCCCCCCCC [nonane] + C1CCCCC1
mass density [kg/m3]
Conditions	x2 = 0	x2 = 0.09303	x2 = 0.2009	x2 = 0.3051	x2 = 0.417	x2 = 0.512	x2 = 0.5996	x2 = 0.7052	x2 = 0.7993	x2 = 0.9039
18340 kPa	–	–	–	–	–	–	–	760.7 ± 1.2	768 ± 1.2	777.3 ± 1.1
20370 kPa	728.6 ± 1.5	731.6 ± 1.5	735.7 ± 1.5	740 ± 1.4	745.1 ± 1.4	749.8 ± 1.4	755.2 ± 1.3	762.1 ± 1.3	769.4 ± 1.2	778.8 ± 1.2
22390 kPa	730 ± 1.6	732.9 ± 1.6	737.1 ± 1.5	741.4 ± 1.5	746.5 ± 1.5	751.3 ± 1.4	756.6 ± 1.4	763.5 ± 1.3	770.8 ± 1.3	780.2 ± 1.3
24420 kPa	731.3 ± 1.7	734.2 ± 1.6	738.4 ± 1.6	742.7 ± 1.6	747.9 ± 1.5	752.6 ± 1.5	758 ± 1.5	764.9 ± 1.4	772.2 ± 1.4	781.6 ± 1.3
26450 kPa	732.6 ± 1.7	735.6 ± 1.7	739.8 ± 1.7	744.1 ± 1.6	749.2 ± 1.6	753.9 ± 1.6	759.3 ± 1.5	766.3 ± 1.5	773.5 ± 1.4	783 ± 1.4
28470 kPa	733.9 ± 1.8	736.9 ± 1.8	741.1 ± 1.8	745.3 ± 1.7	750.5 ± 1.7	755.2 ± 1.6	760.6 ± 1.6	767.6 ± 1.5	774.9 ± 1.5	784.3 ± 1.4
29490 kPa	734.5 ± 1.9	737.5 ± 1.8	741.7 ± 1.8	746 ± 1.8	751.1 ± 1.7	755.8 ± 1.7	761.3 ± 1.6	768.2 ± 1.6	775.5 ± 1.5	785 ± 1.5
30500 kPa	735.1 ± 1.9	738.1 ± 1.9	742.3 ± 1.8	746.6 ± 1.8	751.8 ± 1.7	756.5 ± 1.7	761.9 ± 1.7	768.9 ± 1.6	776.2 ± 1.6	785.7 ± 1.5
32530 kPa	736.4 ± 2	739.4 ± 1.9	743.6 ± 1.9	747.9 ± 1.9	753 ± 1.8	757.7 ± 1.8	763.2 ± 1.7	770.2 ± 1.7	777.5 ± 1.6	787 ± 1.5
34550 kPa	737.6 ± 2	740.7 ± 2	744.8 ± 2	749.1 ± 1.9	754.3 ± 1.9	759 ± 1.8	764.5 ± 1.8	771.5 ± 1.7	778.7 ± 1.7	788.2 ± 1.6
36580 kPa	738.8 ± 2.1	741.8 ± 2.1	746 ± 2	750.3 ± 2	755.5 ± 1.9	760.2 ± 1.9	765.7 ± 1.9	772.7 ± 1.8	780 ± 1.7	789.5 ± 1.7
38600 kPa	740 ± 2.2	743 ± 2.2	747.2 ± 2.1	751.5 ± 2.1	756.7 ± 2	761.4 ± 2	766.9 ± 1.9	773.9 ± 1.9	781.4 ± 1.8	790.7 ± 1.7
39620 kPa	740.6 ± 2.2	743.6 ± 2.2	747.8 ± 2.1	752.1 ± 2.1	757.3 ± 2.1	762 ± 2	767.5 ± 2	774.5 ± 1.9	–	791.3 ± 1.7
